Measured values published in the NIST ThermoML archive (doi:10.1021/je400159e).
Numbers after ± are expanded uncertainties.

Assays:
[1] = Molar enthalpy of transition or fusion; conditions: Crystal; Adiabatic calorimetry
[2] = Crystal; Adiabatic calorimetry
[3] = molar heat capacity at constant pressure; conditions: 101.33 kPa, Crystal, Vacuum adiabatic calorimetry

CCOC(=O)C(NC(C)=O)C(=O)OCC [diethyl 2-acetamidomalonate]
Conditions | Molar enthalpy of transition or fusion [kcal/mol] | Triple point temperature [K]
[1] | 8.198 ± 0.0478 | –
[2] | – | 368.72 ± 0.2

[3]
Conditions | molar heat capacity at constant pressure [J/K/mol]
78.24 K | 110.9 ± 0.7
80 K | 117.6 ± 0.7
80.92 K | 118.8 ± 0.7
84.07 K | 125.4 ± 0.8
85 K | 125.6 ± 0.8
87.1 K | 128.6 ± 0.8
90 K | 132.8 ± 0.8
90.03 K | 132.3 ± 0.8
92.96 K | 137.3 ± 0.9
95 K | 139.4 ± 0.9
95.86 K | 140.8 ± 0.9
98.72 K | 143.3 ± 0.9
100 K | 145.5 ± 0.9
102.57 K | 147.5 ± 0.9
105 K | 151 ± 0.9
106.44 K | 151.4 ± 0.9
109.33 K | 154.8 ± 1
110 K | 156.2 ± 1
112.24 K | 157.6 ± 1
115 K | 161 ± 1
115.17 K | 161.2 ± 1
118.1 K | 164.5 ± 1
120 K | 165.6 ± 1
121.02 K | 167.2 ± 1
123.94 K | 169.6 ± 1.1
125 K | 170 ± 1.1
126.84 K | 172.1 ± 1.1
129.74 K | 174.4 ± 1.1
130 K | 174.2 ± 1.1
132.64 K | 176.4 ± 1.1
135 K | 178.3 ± 1.1
135.54 K | 179.1 ± 1.1
138.43 K | 181.8 ± 1.1
140 K | 182.4 ± 1.1
141.33 K | 184 ± 1.1
144.22 K | 186.7 ± 1.2
145 K | 186.3 ± 1.2
147.11 K | 188.2 ± 1.2
149.99 K | 190.2 ± 1.2
150 K | 190.2 ± 1.2
153.39 K | 192.9 ± 1.2
155 K | 194.1 ± 1.2
157.07 K | 195.6 ± 1.2
160 K | 197.9 ± 1.2
160.22 K | 198.3 ± 1.2
163.12 K | 200.2 ± 1.2
165 K | 201.8 ± 1.2
166.04 K | 202.4 ± 1.2
168.95 K | 204.2 ± 1.3
170 K | 205.6 ± 1.3
171.83 K | 206.6 ± 1.3
174.74 K | 208.8 ± 1.3
175 K | 209.5 ± 1.3
177.68 K | 211 ± 1.3
180 K | 213.4 ± 1.3
180.6 K | 213.6 ± 1.3
183.5 K | 216.3 ± 1.3
185 K | 217.3 ± 1.3
186.43 K | 218.3 ± 1.3
189.39 K | 219.7 ± 1.4
190 K | 221.2 ± 1.4
192.32 K | 222.4 ± 1.4
195 K | 225.1 ± 1.4
195.24 K | 225 ± 1.4
198.14 K | 227.4 ± 1.4
200 K | 229 ± 1.4
201.06 K | 229.4 ± 1.4
204.69 K | 233 ± 1.4
205 K | 232.9 ± 1.4
208.24 K | 235.4 ± 1.4
210 K | 236.8 ± 1.5
211.12 K | 237.9 ± 1.5
214.07 K | 239.9 ± 1.5
215 K | 240.8 ± 1.5
216.99 K | 243.1 ± 1.5
219.9 K | 244 ± 1.5
220 K | 244.7 ± 1.5
